In paper PMC2941209 (Synapse (New York, N.Y.), 2010):
“And” between values parts separate entries of the source, which are not always exact repeats. Equal entries are not always repeated. Structures can show the parent of a compound that is named as a salt.

Assays:
SERT [1] = target: T1, SERT (Rattus norvegicus, UniProt P31652); test: [3H]5-HT release assay; conditions: for Emax [3H]5-HT release, 15 μM EG-1-149 / Emax [3H]5-HT release, NO EG-1-149: ±SD (n=6); for EMAX substrate-induced [3H]5-HT release, CONTROL: substrate alone (control), 100% = release by 100 μM tyramine, ±SD
SERT [2] = target: T1, SERT; test: biochemical
DAT = conditions: read-out: IC50 reuptake inhibition, DAT; ref Greiner et al., 2003; cited from earlier work
SERT [3] = target: T1, SERT; test: [3H]5-HT uptake inhibition assay; type: biochemical
[4] = 1 μM test compound, substrate MDMA

T1 sequence (P31652 whole entry): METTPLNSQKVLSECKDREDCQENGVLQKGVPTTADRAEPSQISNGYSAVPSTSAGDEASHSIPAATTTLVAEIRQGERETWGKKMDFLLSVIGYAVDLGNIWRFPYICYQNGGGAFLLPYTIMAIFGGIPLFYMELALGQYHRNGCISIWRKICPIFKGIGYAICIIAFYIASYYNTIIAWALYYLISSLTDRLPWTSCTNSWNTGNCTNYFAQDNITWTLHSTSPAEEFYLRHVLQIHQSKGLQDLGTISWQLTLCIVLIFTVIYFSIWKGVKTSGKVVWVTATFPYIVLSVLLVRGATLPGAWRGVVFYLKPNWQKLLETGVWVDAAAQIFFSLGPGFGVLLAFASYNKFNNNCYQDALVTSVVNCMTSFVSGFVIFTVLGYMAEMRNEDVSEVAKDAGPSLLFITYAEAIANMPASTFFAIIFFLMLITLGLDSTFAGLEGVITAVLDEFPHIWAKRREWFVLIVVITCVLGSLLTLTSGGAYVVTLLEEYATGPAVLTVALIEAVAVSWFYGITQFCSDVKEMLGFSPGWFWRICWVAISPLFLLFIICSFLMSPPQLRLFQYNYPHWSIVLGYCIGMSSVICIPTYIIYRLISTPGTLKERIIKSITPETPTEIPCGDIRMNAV

## CNC(C)Cc1ccc2c(c1)OCO2 (racemic) [(±)-MDMA]
SERT [1]
  EC50: 88 ± 10 nM
SERT [1]; read-out: EMAX substrate-induced [3H]5-HT release, CONTROL
  Emax: 105%

## CC(N)Cc1cccc(C(F)(F)F)c1 (single isomer, unassigned; (+)) [(+)-Norfenfluramine]
SERT [1]; release time 5 min
  Emax [3H]5-HT release, 15 μM EG-1-149: 81 ± 3 %I
  Emax [3H]5-HT release, NO EG-1-149: 114 ± 8 %I
SERT [1]; release time 5 min, listed as (+)-norfenfluramine
  Emax [3H]5-HT release, 15 μM EG-1-149: 81±3 %I
SERT [1]; release time 15 min
  Emax [3H]5-HT release, 15 μM EG-1-149: 97 ± 4 %I
  Emax [3H]5-HT release, NO EG-1-149: 111 ± 5 %I
SERT [1]; release time 15 min, listed as (+)-norfenfluramine
  Emax [3H]5-HT release, 15 μM EG-1-149: 97±4 %I
SERT [1]
  EMAX substrate-induced [3H]5-HT release, CONTROL: 113±6%

## NCCc1c[nH]c2ccc(O)cc12 [5-HT]
SERT [1]
  EMAX substrate-induced [3H]5-HT release, CONTROL: 85±1%

## Brc1ccc(CN2CCC(CCOC(c3ccccc3)c3ccccc3)CC2)cc1 [EG-1-149, 4-(2-(Benzhydryloxy)ethyl)-1-(4-bromobenzyl)piperidine oxalate]
SERT [2]
  Ki: 713 nM and 1180 nM and 4820 nM and 2900 nM and 1770 nM
DAT
  IC50: 5.1 ± 0.4 nM
SERT [3]
  IC50: 1760 nM

## Cc1cc(NC(=O)Nc2ccc3c(ccn3C)c2)sn1 [SB204741, N-(1-Methyl-1H-indol-5-yl)-N′-(3-methylisothiazol-5-yl)urea]
SERT [3]
  IC50: 38000 nM
SERT [1]; [4]
  effect on EMAX of MDMA-induced [3H]5-HT release: without altering the EMAX values
  rightward shift of the MDMA dose-response curve ([3H]5-HT release): 3–4 fold

## Clc1cccc(N2CCNCC2)c1 [mCPP, meta-chlorophenylpiperazine]
SERT [1]
  EMAX substrate-induced [3H]5-HT release, CONTROL: 94±3% and 91±1%
